Assay results as given in paper PMC9234961 (Journal of Medicinal Chemistry, 2022).
≈ marks a conversion by molar mass, not a printed value. Where “and” joins values, the source holds several entries; their conditions need not be identical. Equal entries are not always repeated. Where two headings read alike, the source gives them in different places.

Legend:
[1] = target: endogenous BCL6 in OCI-Ly1 cells (Homo sapiens, UniProt P41182); assay: cell-based; details: for degradation of BCL6 (in words): OCI-Ly1 MSD assay; for MSD degrader assay [OCI-Ly1] Dmax: mean maximal degradation of BCL6
[2] = Microsomal clearance assay (MLM); type: in vitro ADME; details: female, CD1, pH 7.4; mouse liver microsomes, 1 μM compound
Procedure: 6. Supplementary experimental: in vitro DMPK assays
6.1 Microsomal clearance assay
Microsomal clearance was determined in female CD1 mice, female Sprague–Dawley rats, and mixed gender human liver microsomes obtained from BioIVT (Peterborough, U.K.) following incubation of 1 μM compound at 37 °C in 0.5 mg/mL microsomal protein, 3 mmol/L MgCl2, 1 mmol/L NADPH, 2.5 mmol/L and 10 mmol/L phosphate buffer (pH 7.4) (all purchased from Sigma-Aldrich, Gillingham, U.K). Reactions were started by addition of the cofactors following 10 min preincubation of microsomes with test compound and were terminated at −1, 0, 5, 10, 15, and 30 min with three volumes of ice-cold methanol containing internal standard. Samples were centrifuged at 2800g for 30 min at 4 °C and the supernatants analyzed.
Control incubations were prepared as above with omission of cofactors. Compound measurements were […]
separation with a 3 min gradient of 0.1% formic acid in methanol on a Kinetex C18, 50 × 2.1 mm 2.6 μm UPLC column (Phenomenex, Macclesfield, UK). […]

[3] = logD7.4 assay (Chrom log D method); type: physicochemical; details: reversed-phase HPLC on Phenomenex Luna C8 column, pH 7.4, read-out: Measured logD7.4
Procedure: Calibration, validation and in-house compounds were prepared at 1mM in 10% DMSO / 90% Trizma solution (100mM Trizma in 75/25 methanol/water). 3 µL standard injections (with needle wash) of all calibration, validation and in-house samples were made onto a Phenomenex Luna C8 column (3µm, 100 x 4.6 mm, 100A, Phenomenex, Torrence, USA). Chromatographic separation at 30°C was carried out using […]
2 mL/min. The gradient was held at 0:100 water:organic for 0.8 minutes, then returned to the starting conditions of 95:5 water:organic for 0.2 minutes. The column was re-equilibrated for 5 minutes at the […]

NMR solubility assay = type: physicochemical; details: kinetic solubility by NMR in HEPES buffer at pH 8, 4% DMSO; read-out: Aq. Sol.
Procedure: 4. Supplementary experimental: physicochemical assays
0.5 mM TCEP, 10% D2O) was pipetted into the same well and mixed by up-down pipetting 3 times to create […]
It was then separated by centrifugation (1000 rpm
The plate was then sealed and incubated at room temperature for 20 hours, […]
165 µL of the supernatant was transferred to a 3 mm NMR tube (Bruker, Part No. Z112272) using liquid handler SamplePro Tube SJ S (Bruker). The concentration of the solubilized compound in solubility sample is measured by quantitative 1H-NMR using a single external standard (200 µM caffeine (Sigma, C1778) in PBS (pH 7.4) with 1% DMSO-d6).
The detail of the NMR method is as following: NMR data was collected on a Bruker Avance Neo 600 spectrometer equipped with a 5 mm TCI-CryoProbe. The 1H spectrum was referenced to the internal deuterated solvent. The operating frequency for 1H was 600 MHz. All NMR data were acquired at the […]
1H-NMR spectrum was acquired using a Bruker standard 1D lc1pngppsf2 pulse sequence with 32 scans.
The sweep width was 6.2 ppm with O1P set to 8.8 ppm, and the FID contained 16k time-domain data points. Relaxation delay was set to 20 sec. Water signal was suppressed. […]

human BCL6 BTB domain [4] = target: T1, human BCL6 BTB domain (Homo sapiens, UniProt P41182); details: for BCL6 TR-FRET pIC50 mean: mean of replicates
Procedure: (§1) Assays were performed in a 384-well black Proxiplate (Perkin Elmer) containing 1 nM Trx-6xHis-BCL6 (in
(§2) anti-6xHis-Terbium cryptate (CisBio Bioassays, France), in assay buffer (25 mM Hepes pH8, 100 mM NaCl,
(§3) 0.05% Tween20, 0.5 mM TCEP, 0.05% bovine serum albumin). Test compounds in DMSO or DMSO alone
(§4) were added to the wells using an ECHO550 acoustic dispenser (Labcyte Inc) to give the appropriate test
(§5) concentration in 0.7% v/v DMSO final. After 2 hours incubation at room temperature the plate was read
(§6) The % inhibition at each concentration was calculated by normalising FRET ratio to the
(§7) appropriate high (DMSO with all reagents) and low (DMSO without BCL6) controls. IC50 values were
(§8) determined using GraphPad Prism 6.0 or Dotmatics (Bishops Stortford, UK) software by fitting the
(§9) normalised data to a sigmoidal four-parameter logistic fit equation.

human BCL6 BTB domain [5] = target: T1, human BCL6 BTB domain; assay: biochemical
Procedure: as §1, §2, §3, §4, §5, §6, §7, §8, §9

[6] = OCI-Ly1, read-out: MSD degrader assay [OCI-LY1] Dmax individual replicates, single replicate values
[7] = OCI-Ly1, read-out: MSD degrader assay [OCI-Ly1] Dmax, mean maximal degradation of BCL6, OCI-Ly1 cells, 2 h
[8] = read-out: MSD degrader assay [OCI-LY1] DC50 individual replicates, single replicate values
[9] = read-out: MSD degrader assay [OCI-Ly1] DC50, geometric mean, OCI-Ly1 cells, 2 h incubation
[10] = read-out: BCL6 TR-FRET IC50, geometric mean, BCOR-AF633 peptide, 2 h incubation
[11] = read-out: BCL6 TR-FRET IC50 individual replicates, single replicate values
[12] = BCL6 TR-FRET IC50 individual replicates, single replicate values

SMILES	Dmax [1, 6]	Dmax [1, 7]	degradation of BCL6 (in words) [1]	MSD degrader assay [OCI-Ly1] Dmax ([1]; OCI-Ly1 cells, 2 h)	DC50 [1, 8]	DC50 [1, 9]	microsomal CLint at 0.5 h, 1 µM [2]	chromatographic logD [3]	solubility kinetic at 20 h (NMR solubility assay)	BCL6 TR-FRET pIC50 mean (human BCL6 BTB domain [4])	IC50 (human BCL6 BTB domain [4]; [10])	IC50 (human BCL6 BTB domain [4]; [11])	IC50 (human BCL6 BTB domain [5]; [12])	IC50 (human BCL6 BTB domain [5]; BCL6 TR-FRET IC50, geometric mean, BCOR-AF633 peptide, 2 h incubation)	IC50 (human BCL6 BTB domain [5]; BCL6 TR-FRET pIC50 mean, mean of replicates)
Cn1c(=O)c2c(c3cc(Nc4nc(N5CCC(F)(F)[C@H](O)C5)ncc4Cl)ccc31)N[C@@H](C1CC1)C(F)(F)CO2 (single isomer, unassigned) [8b]	< 30%	< 30%	nondegrading isomer	> 30%	> 2000 nM	> 2000 nM	22 µL/min/mg	3	13 µM (≈ 7.4 µg/mL)	8.3342	4.6 nM	4.8 nM and 4.7 nM and 4.4 nM			
C[C@H]1C[C@H](O)CN(c2ncc(Cl)c(Nc3ccc4c(c3)c3c(c(=O)n4C)OCC(F)(F)[C@H](C4CC4)N3)n2)C1 [13b, (S)-10-((5-Chloro-2-((3S,5S)-3-hydroxy-5-methylpiperidin-1-yl)pyrimidin-4-yl)amino)-2-cyclopropyl-3,3-difluoro-7-methyl-1,2,3,4-tetrahydro-[1,4]oxazepino[2,3-c]quinolin-6(7H)-one]	< 30%	< 30%	nondegraders of BCL6	> 30%	> 2000 nM	> 2000 nM	446 µL/min/mg	3.1		8.2236	6 nM		4.9 nM and 6.4 nM and 6.8 nM		
Cn1c(=O)n(CCC(C)(C)O)c2cc(Nc3nc(N4CCC(F)(F)C(CO)C4)ncc3Cl)ccc21 (centres unmarked) [compound 4, 5-((5-Chloro-2-(4,4-difluoro-3-(hydroxymethyl)piperidin-1-yl)pyrimidin-4-yl)amino)-3-(3-hydroxy-3-methylbutyl)-1-methyl-1,3-dihydro-2H-benzo[d]imidazol-2-one]								2.5	294 µM (≈ 150 µg/mL)						
C[C@@H]1C[C@@H](O)CN(c2ncc(Cl)c(Nc3ccc4c(c3)c3c(c(=O)n4C)OCC(F)(F)[C@H](C4CC4)N3)n2)C1 [13a, (S)-10-((5-Chloro-2-((3R,5R)-3-hydroxy-5-methylpiperidin-1-yl)pyrimidin-4-yl)amino)-2-cyclopropyl-3,3-difluoro-7-methyl-1,2,3,4-tetrahydro-[1,4]oxazepino[2,3-c]quinolin-6(7H)-one]	< 30%	< 30%	nondegraders of BCL6	> 30%	> 2000 nM	> 2000 nM	78 µL/min/mg	3		8.0053	9.9 nM	9.9 nM	11.4 nM and 8.6 nM		
Cn1c(=O)c2c(c3cc(Nc4nc(N5CCC[C@H](O)C5)ncc4Cl)ccc31)N[C@@H](C1CC1)C(F)(F)CO2 [14b, (S)-10-((5-chloro-2-((S)-3-hydroxypiperidin-1-yl)pyrimidin-4-yl)amino)-2-cyclopropyl-3,3-difluoro-7-methyl-1,2,3,4-tetrahydro-[1,4]oxazepino[2,3-c]quinolin-6(7H)-one]	< 30%	< 30%	none was seen	> 30%	> 2000 nM	> 2000 nM	139 µL/min/mg		23 µM (≈ 12.3 µg/mL)		2.5 nM	2.6 nM	3.1 nM (2×) and 3.2 nM and 2.9 nM	3 nM	2.98 nM
